Results from US20030109568A1 (CHEIL JEDANG Corporation, priority 2001, published 2003).

How the values were obtained:
[1] = target: T1, cyclooxygenase-1 (Mus musculus, UniProt P22437); experiment: Cyclooxygenase-1 inhibition in mouse peritoneal macrophages (PGE2 ELISA); assay type: cell-based; conditions: for Inhibitory effects of cyclooxygenase (COX), COX-1: mouse peritoneal macrophages
T1 construct: endogenous in cells; host or cells: primary mouse peritoneal macrophages (unstimulated)
T1 sequence (P22437 27-602): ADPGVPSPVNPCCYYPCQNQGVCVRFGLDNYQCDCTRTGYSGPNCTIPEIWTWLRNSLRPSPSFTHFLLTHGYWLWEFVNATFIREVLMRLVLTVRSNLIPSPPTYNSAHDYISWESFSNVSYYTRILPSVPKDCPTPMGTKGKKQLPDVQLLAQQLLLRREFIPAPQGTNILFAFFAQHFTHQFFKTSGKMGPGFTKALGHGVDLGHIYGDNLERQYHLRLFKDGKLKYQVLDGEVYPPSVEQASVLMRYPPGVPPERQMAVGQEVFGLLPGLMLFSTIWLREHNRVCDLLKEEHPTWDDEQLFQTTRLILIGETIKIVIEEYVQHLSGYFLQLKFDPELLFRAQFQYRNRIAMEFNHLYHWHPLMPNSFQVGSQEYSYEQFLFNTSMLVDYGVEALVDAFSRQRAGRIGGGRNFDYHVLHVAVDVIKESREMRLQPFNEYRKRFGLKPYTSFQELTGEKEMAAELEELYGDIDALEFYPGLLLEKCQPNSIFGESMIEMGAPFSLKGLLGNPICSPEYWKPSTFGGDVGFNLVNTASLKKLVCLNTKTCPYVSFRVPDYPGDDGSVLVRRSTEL
Procedure: First of all, the cyclooxygenase-1 was examined through the following procedure.
Peritoneal fluid in which macrophages were suspended was extracted from a mouse peritoneal cavity and centrifuged at 4° C., 1,000 rpm for 2 minutes. Then, the supernatant was removed, suspended with 20 ml of incomplete RPMI medium [PC/SM (penicilin/streptomycin)] and again centrifuged under the same condition. […] Then, the cell number was calculated with the hemocytometer and adjusted to reach 1×10^6 cells/ml of cell concentration in the final cell suspension. 100 μl of the resulting suspension was transferred into each well of 96-well plate and left at 37° C. in 5% CO2 with the incubator for about 2 hours in order to attach macrophages. […] The resulting cell was cultivated in the incubator at 37° C. in 5% CO2 for about 12˜16 hours. Then, arachidonic acid was added, adjusting to 10 μM of a final concentration and incubated at 37° C. for more 10 minutes and the supernatant of the reacted solution (˜180 μl) was recovered to finish the reaction.

[2] = target: T2, cyclooxygenase-2 (Mus musculus, UniProt Q05769); experiment: Cyclooxygenase-2 inhibition in aspirin-treated, LPS-stimulated mouse peritoneal macrophages (PGE2 ELISA); assay type: cell-based; conditions: for Inhibitory effects of cyclooxygenase (COX), COX-2: LPS-stimulated mouse peritoneal macrophages
T2 construct: Peritoneal fluid suspended with macrophages was extracted from a mouse peritoneal cavity; endogenous in cells; host or cells: primary mouse peritoneal macrophages, pretreated with 500 µM aspirin and stimulated with 10 µg/ml LPS
T2 sequence (Q05769 18-604): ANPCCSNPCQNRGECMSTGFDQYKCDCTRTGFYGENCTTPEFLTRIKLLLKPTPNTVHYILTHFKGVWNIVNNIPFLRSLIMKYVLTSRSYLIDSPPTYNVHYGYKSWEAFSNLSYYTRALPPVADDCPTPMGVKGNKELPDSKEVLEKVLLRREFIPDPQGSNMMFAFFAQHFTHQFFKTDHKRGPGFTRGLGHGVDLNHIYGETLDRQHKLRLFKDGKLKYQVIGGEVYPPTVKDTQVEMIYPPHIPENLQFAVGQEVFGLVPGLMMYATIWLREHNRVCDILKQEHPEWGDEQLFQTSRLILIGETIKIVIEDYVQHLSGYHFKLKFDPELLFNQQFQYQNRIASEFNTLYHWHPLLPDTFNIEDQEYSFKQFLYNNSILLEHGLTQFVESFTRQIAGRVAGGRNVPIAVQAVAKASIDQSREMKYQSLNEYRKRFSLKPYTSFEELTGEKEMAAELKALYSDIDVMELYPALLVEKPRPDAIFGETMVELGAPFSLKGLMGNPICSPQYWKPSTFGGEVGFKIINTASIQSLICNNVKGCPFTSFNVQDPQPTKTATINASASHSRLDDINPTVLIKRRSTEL
Procedure: Second, the cyclooxygenase-2 was examined through the following procedure.
Peritoneal fluid suspended with macrophages was extracted from a mouse peritoneal cavity and centrifuged at 4° C., 1,000 rpm for 2 minutes. Then, the supernatant was removed, suspended using incomplete RPMI medium [PC/SM (penicilin/streptomycin)] and again centrifuged under the same condition. […] Then, the cell number was calculated with the hemocytometer and adjusted to reach 1×10^6 cells/ml of cell concentration in the final cell suspension. The resulting suspension was treated with aspirin, adjusting 500 μM of final concentration and transderred into each well of 96-well plate in 100 μl respectively. Again, it was left at 37° C. in 5% CO2 in the incubator for about 2 hours in order to attach macrophages. […] The resulting cell was cultivated in the incubator at 37° C. in 5% CO2 for about 12˜16 hours. Then, arachidonic acid was added, adjusting to 10 μM of a final concentration and incubated at 37° C. for more 10 minutes and the supernatant of the reacted solution (˜180 μl) was recovered to finish the reaction.

[3] = compared with comparative substance

Structure (SMILES) | Inhibitory effects of cyclooxygenase (COX), COX-1 ([1]; 3 μM) [% inhibition] | Inhibitory effects of cyclooxygenase (COX), COX-1 ([1]; 10 μM) [% inhibition] | Inhibitory effects of cyclooxygenase (COX), COX-1 ([1]; 30 μM) [% inhibition] | Inhibitory effects of cyclooxygenase (COX), COX-2 ([2]; 30 nM) | Inhibitory effects of cyclooxygenase (COX), COX-2 ([2]; 100 nM) | Inhibitory effects of cyclooxygenase (COX), COX-2 ([2]; 300 nM) | selectivity of cyclooxygenase-2 (in words) ([2]; COX-2 versus COX-1) | inhibition effect against cyclooxygenase-1 (in words) [1, 3] | inhibition effect against cyclooxygenase-2 (in words) [2, 3]
O=C(c1ccccc1)n1ccc2cc([N+](=O)[O-])ccc21 [Example 1, 1-benzoyl-5-nitro-1H-indole] | 33.2 | 40.7 | 45.8 | ˜0 % inhibition | ˜0 % inhibition | ˜0 % inhibition |  |  | 
CC(C)c1ccc(Cn2ccc3cc([N+](=O)[O-])ccc32)cc1 [Example 5, 1-(4-isopropyl-benzyl)-5-nitro-1H-indole] | 39.9 | 47.1 | 54.3 | 51.2 % inhibition | 55.4 % inhibition | 61.4 % inhibition |  |  | 
Nc1ccc2c(ccn2C(=O)c2ccccc2)c1 [Example 6, 1-benzoyl-5-amino-1H-indole] | 52.3 | 57.3 | 64.8 | 33.4 % inhibition | 46.6 % inhibition | 54.9 % inhibition |  |  | 
CS(=O)(=O)Nc1ccc2c(ccn2C(=O)c2ccccc2)c1 [Example 9, N-(1-benzoyl-1H-indole-5-yl)-methanesulfonamide] | 22.8 | 31.1 | 42.1 | 20.4 % inhibition | 25.5 % inhibition | 30.1 % inhibition |  |  | 

Now from value to compound, other results behind:

Inhibitory effects of cyclooxygenase (COX), COX-1 ([1]; 3 μM) [% inhibition] | Inhibitory effects of cyclooxygenase (COX), COX-1 ([1]; 10 μM) [% inhibition] | Inhibitory effects of cyclooxygenase (COX), COX-1 ([1]; 30 μM) [% inhibition] | Inhibitory effects of cyclooxygenase (COX), COX-2 ([2]; 30 nM) | Inhibitory effects of cyclooxygenase (COX), COX-2 ([2]; 100 nM) | Inhibitory effects of cyclooxygenase (COX), COX-2 ([2]; 300 nM) | selectivity of cyclooxygenase-2 (in words) ([2]; COX-2 versus COX-1) | Structure (SMILES) | inhibition effect against cyclooxygenase-1 (in words) [1, 3] | inhibition effect against cyclooxygenase-2 (in words) [2, 3]
56.7 | 68.7 | 80.4 | 15.7 % inhibition | 20.7 % inhibition | 22.0 % inhibition |  | O=[N+]([O-])c1ccc2c(ccn2Cc2ccccc2)c1 [Example 2, 1-benzyl-5-nitro-1H-indole] |  | 
60.4 | 64.4 | 74.6 | 50.1 % inhibition | 58.8 % inhibition | 70.2 % inhibition |  | O=[N+]([O-])c1ccc2c(ccn2Cc2ccc(F)cc2)c1 [Example 3, 1-(4-fluoro-benzyl)-5-nitro-1H-indole] |  | 
60.3 | 71.1 | 80.1 | 55.4 % inhibition | 69.9 % inhibition | 81.5 % inhibition |  | COc1ccc(Cn2ccc3cc([N+](=O)[O-])ccc32)cc1 [Example 4, 1-(4-methoxy-benzyl)-5-nitro-1H-indole] |  | 
30.0 | 44.1 | 56.4 | 59.8 % inhibition | 70.6 % inhibition | 76.8 % inhibition | better than any other substances | CS(=O)(=O)Nc1ccc2c(ccn2Cc2ccccc2)c1 [Example 7, N-(1-benzyl-1H-indole-5-yl)-methanesulfonamide] | in much lower level than a comparative substance | more excellent than a comparative substance
7.6 | 32.3 | 53.9 | 22.1 % inhibition | 28.6 % inhibition | 29.6 % inhibition |  | CS(=O)(=O)Nc1ccc2c(ccn2Cc2ccc(F)cc2)c1 [Example 8, N-[1-(4-fluoro-benzyl)-1H-indole-5-yl]-methansulfonamide] |  | 
